The Kd is the constant that tells how readily two partners part at equilibrium. A low value points to tighter binding.

The experiment addresses T1, TLR8 (Homo sapiens, UniProt Q9NR97).
T1 sequence (Q9NR97 27-827): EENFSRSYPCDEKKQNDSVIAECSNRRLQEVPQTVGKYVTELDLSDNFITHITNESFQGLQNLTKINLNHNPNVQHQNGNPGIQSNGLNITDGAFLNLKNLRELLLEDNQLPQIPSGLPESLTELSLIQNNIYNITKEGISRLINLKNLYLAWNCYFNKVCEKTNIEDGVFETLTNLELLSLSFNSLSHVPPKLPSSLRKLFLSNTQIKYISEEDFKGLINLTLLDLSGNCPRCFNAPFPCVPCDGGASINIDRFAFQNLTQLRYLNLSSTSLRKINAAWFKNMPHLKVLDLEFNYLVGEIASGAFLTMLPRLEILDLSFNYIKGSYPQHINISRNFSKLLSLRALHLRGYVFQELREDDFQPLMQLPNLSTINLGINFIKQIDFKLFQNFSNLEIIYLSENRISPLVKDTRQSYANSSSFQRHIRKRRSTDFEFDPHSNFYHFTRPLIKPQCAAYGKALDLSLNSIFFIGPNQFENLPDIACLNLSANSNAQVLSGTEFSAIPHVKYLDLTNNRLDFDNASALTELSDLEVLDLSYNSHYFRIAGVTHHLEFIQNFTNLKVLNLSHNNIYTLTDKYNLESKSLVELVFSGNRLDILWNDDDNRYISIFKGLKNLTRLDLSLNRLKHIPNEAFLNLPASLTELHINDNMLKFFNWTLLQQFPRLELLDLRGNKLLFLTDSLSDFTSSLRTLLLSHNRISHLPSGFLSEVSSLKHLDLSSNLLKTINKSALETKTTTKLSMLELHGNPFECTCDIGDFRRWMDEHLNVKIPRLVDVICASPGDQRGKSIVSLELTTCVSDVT
Description: ITC. The class given is binding.

As to `O=c1ccn([C@@H]2O[C@H](CO)[C@@H](O)[C@H]2O)c(=O)[nH]1` [uridine], the Kd was 12 µM.

(Values after paper PMC8285539, “Tetrasubstituted imidazoles as incognito Toll-like receptor 8 a(nta)gonists” (Nature Communications, 2021).)
